Targets include Melanocortin receptor 3 (Homo sapiens, UniProt P41968); Motilin receptor (Homo sapiens, UniProt O43193); Histamine H1 receptor (Homo sapiens, UniProt P35367).
Assay [1] concerns the target Sodium-dependent serotonin transporter (Homo sapiens, UniProt P31645).
For assay [2], the target named is Gamma-aminobutyric acid receptor subunit alpha-1 (Rattus norvegicus, UniProt P62813). The format is functional.
In assay [3] the target is cGMP-inhibited 3',5'-cyclic phosphodiesterase 3A (Homo sapiens, UniProt Q14432). It is filed as functional.
cGMP-inhibited 3',5'-cyclic phosphodiesterase 3A, sequence (Q14432 whole entry): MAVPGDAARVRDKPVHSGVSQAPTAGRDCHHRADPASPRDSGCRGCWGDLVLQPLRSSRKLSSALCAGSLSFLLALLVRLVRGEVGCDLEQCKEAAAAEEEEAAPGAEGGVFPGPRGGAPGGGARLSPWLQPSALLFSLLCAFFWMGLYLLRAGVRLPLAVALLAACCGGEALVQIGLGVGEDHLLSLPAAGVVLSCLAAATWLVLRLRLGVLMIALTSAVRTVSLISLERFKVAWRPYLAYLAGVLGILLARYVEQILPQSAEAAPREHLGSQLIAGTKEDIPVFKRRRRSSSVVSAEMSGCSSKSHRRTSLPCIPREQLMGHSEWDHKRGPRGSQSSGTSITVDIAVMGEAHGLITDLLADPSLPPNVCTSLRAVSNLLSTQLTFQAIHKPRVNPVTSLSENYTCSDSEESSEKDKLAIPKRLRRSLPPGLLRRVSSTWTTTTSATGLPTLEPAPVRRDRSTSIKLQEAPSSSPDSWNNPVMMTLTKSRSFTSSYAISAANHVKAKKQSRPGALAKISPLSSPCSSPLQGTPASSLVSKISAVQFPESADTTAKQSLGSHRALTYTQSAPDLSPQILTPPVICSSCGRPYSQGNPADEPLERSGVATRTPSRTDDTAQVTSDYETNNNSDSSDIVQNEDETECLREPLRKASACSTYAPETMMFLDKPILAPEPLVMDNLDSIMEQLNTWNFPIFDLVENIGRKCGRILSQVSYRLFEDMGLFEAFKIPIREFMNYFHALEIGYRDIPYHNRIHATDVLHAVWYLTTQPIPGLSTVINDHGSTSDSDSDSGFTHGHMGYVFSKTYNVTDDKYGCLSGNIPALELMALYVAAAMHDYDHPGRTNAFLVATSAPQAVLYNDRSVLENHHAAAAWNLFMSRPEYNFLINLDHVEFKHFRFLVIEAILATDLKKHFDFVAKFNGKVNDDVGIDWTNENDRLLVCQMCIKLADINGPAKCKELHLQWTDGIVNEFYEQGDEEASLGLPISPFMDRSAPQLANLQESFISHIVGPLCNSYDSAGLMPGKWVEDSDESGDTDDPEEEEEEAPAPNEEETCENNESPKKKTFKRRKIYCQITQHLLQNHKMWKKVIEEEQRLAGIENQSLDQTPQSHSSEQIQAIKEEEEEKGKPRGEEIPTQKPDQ
Assay [4] concerns the target Kappa-type opioid receptor (Homo sapiens, UniProt P41145).
Assay [5] concerns the target T1, Alpha-1A adrenergic receptor (Homo sapiens, UniProt P35348).
T1 sequence (P35348 whole entry): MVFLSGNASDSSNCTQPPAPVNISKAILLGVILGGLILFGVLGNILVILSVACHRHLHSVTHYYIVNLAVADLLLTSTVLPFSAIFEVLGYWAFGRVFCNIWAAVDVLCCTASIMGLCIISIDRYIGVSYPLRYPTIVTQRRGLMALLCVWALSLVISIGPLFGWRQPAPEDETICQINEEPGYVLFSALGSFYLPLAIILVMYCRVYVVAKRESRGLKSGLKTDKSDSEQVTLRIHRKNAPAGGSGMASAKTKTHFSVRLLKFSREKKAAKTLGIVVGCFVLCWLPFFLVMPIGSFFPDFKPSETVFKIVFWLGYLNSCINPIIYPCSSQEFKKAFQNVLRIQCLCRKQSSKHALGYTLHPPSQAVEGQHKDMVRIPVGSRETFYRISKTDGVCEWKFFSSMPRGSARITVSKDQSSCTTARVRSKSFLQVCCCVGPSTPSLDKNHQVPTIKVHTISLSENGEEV
The format is functional, cell-based.

The target in assay [6] is T2, Equilibrative nucleoside transporter 1 (Homo sapiens, UniProt Q99808).
T2 sequence (Q99808 whole entry): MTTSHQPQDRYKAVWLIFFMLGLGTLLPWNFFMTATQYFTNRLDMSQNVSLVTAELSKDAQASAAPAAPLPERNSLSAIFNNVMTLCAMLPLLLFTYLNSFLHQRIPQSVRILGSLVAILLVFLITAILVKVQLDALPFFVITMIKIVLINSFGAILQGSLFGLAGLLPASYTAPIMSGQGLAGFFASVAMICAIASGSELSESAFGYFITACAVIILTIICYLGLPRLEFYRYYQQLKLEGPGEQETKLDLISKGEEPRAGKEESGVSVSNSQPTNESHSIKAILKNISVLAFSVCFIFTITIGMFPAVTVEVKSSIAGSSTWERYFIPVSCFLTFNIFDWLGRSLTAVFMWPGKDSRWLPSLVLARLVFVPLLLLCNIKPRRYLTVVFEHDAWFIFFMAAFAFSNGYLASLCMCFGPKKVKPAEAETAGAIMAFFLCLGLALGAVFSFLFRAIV

Assay [7] concerns the target Glutamate receptor ionotropic, NMDA 1 (Rattus norvegicus, UniProt P35439).
The target in assay [8] is T3, Alpha-2B adrenergic receptor (Homo sapiens, UniProt P18089).
T3 sequence (P18089 whole entry): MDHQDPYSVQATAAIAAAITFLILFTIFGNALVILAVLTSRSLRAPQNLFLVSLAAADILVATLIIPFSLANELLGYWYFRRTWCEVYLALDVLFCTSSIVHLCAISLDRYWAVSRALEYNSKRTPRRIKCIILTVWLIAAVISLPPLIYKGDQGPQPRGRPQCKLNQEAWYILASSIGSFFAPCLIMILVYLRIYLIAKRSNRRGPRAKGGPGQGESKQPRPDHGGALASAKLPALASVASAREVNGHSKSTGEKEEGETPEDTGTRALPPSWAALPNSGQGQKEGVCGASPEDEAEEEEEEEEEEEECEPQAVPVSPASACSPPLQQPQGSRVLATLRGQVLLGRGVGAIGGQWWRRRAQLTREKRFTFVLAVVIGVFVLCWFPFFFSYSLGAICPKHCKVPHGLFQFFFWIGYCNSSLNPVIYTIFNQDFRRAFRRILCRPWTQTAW

The target of assay [9] is T4, 5-hydroxytryptamine receptor 2C (Homo sapiens, UniProt P28335).
T4 sequence (P28335 whole entry): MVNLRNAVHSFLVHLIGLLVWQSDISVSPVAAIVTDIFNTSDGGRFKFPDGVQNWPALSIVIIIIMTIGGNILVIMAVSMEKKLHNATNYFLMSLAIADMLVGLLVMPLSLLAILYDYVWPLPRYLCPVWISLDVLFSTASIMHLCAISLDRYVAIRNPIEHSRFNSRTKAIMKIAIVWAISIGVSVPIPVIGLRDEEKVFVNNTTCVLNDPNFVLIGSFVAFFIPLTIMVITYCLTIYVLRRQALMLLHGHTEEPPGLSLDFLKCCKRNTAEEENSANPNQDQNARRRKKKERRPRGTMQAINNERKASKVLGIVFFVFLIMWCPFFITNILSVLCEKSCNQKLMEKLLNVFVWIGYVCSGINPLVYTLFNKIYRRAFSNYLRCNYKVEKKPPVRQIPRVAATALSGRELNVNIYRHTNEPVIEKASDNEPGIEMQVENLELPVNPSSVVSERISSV

Assay [10] addresses T5, 5-hydroxytryptamine receptor 1A (Homo sapiens, UniProt P08908).
T5 sequence (P08908 whole entry): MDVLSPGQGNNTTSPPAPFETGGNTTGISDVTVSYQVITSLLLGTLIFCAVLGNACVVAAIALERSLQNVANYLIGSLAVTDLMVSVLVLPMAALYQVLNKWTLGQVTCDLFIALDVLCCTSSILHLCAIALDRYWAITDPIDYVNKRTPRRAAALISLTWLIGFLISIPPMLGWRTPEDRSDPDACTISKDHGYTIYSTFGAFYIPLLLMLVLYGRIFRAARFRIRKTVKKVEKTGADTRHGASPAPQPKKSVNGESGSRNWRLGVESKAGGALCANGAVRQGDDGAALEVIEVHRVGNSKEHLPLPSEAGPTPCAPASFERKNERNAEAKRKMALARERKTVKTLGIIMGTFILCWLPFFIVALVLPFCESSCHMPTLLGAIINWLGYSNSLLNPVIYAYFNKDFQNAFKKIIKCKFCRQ
The format is functional, cell-based.
Note: assay procedure not described here.

Melanocortin receptor 3, sequence (P41968 whole entry): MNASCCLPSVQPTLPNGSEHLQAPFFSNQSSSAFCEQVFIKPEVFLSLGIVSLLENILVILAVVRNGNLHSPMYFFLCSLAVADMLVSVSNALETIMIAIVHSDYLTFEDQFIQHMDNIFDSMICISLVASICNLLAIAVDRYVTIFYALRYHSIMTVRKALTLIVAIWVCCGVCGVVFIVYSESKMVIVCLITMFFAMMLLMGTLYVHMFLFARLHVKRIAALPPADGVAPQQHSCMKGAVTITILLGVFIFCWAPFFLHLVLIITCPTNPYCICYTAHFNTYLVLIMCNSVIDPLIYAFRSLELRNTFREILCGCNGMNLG
Sodium-dependent serotonin transporter, sequence (P31645 whole entry): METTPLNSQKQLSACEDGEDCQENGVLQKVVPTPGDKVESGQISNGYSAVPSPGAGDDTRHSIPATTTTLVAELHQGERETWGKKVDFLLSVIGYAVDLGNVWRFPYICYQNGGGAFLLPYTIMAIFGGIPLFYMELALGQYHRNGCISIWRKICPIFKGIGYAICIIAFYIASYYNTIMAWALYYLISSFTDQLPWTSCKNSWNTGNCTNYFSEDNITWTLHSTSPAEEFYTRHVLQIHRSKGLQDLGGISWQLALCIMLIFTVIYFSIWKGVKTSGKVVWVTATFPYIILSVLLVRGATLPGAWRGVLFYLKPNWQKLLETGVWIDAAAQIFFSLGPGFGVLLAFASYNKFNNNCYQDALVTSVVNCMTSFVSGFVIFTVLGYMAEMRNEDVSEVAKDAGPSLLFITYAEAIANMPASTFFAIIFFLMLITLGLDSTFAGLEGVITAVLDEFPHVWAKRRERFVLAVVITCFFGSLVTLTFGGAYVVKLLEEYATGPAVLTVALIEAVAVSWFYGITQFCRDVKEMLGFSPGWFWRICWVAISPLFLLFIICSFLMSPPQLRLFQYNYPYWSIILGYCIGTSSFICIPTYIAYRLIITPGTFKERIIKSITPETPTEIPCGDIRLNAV
Gamma-aminobutyric acid receptor subunit alpha-1, sequence (P62813 whole entry): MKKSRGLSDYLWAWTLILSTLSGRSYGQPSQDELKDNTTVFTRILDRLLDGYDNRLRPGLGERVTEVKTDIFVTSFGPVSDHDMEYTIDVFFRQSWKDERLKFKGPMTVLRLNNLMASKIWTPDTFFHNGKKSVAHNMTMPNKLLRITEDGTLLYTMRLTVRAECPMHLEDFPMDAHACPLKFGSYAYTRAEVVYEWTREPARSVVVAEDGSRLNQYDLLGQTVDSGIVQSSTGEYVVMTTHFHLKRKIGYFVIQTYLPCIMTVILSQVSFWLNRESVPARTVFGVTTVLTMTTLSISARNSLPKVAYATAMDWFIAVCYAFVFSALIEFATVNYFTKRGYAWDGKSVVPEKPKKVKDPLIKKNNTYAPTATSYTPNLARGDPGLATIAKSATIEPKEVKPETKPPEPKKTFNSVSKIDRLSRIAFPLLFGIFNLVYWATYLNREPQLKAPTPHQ
Kappa-type opioid receptor, sequence (P41145 whole entry): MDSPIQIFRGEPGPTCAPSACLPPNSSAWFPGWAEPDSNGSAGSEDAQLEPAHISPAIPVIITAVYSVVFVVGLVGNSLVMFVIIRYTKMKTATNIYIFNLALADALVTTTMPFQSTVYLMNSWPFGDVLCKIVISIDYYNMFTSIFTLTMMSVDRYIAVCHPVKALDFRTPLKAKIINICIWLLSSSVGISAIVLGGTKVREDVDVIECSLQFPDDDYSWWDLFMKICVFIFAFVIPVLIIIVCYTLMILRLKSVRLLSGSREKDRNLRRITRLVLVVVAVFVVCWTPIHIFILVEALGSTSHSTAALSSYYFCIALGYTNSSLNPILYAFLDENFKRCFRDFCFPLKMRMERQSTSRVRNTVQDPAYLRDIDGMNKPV
Histamine H1 receptor, sequence (P35367 whole entry): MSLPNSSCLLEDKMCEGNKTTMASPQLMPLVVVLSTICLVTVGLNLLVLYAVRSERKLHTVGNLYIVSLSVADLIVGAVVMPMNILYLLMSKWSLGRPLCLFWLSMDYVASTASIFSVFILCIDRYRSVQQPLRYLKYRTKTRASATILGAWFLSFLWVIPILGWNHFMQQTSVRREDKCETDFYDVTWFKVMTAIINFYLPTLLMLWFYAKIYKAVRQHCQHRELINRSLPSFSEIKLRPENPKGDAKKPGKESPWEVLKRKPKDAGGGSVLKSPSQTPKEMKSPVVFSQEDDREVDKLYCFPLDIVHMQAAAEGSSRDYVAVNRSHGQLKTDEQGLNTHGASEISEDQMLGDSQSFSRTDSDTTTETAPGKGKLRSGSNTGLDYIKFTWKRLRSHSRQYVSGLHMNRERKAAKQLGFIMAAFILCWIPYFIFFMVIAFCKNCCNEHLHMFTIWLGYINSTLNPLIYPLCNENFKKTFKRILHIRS
Motilin receptor, sequence (O43193 whole entry): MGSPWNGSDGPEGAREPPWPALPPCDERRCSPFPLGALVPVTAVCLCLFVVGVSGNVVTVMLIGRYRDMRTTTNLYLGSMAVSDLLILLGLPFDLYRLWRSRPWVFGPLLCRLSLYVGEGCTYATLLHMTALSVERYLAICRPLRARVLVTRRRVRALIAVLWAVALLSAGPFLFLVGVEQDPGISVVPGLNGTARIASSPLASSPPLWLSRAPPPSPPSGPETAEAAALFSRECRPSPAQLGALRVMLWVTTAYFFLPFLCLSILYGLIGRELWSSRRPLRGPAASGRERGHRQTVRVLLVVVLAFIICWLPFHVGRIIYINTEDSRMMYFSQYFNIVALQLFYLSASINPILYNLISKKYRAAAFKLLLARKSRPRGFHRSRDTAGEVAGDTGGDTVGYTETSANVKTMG

A word on the AC50: it is the concentration at which the activity in the assay is half-maximal. A higher AC50 goes with activity only at high concentration. As to `CN1C(=O)C(O)N=C(c2ccccc2)c2cc(Cl)ccc21` (stereo not drawn) [TEMAZEPAM], the AC50 is over 10 µM in assay [1]; 44 nM in assay [2]; 3 µM in assay [3]; 9.19 µM in [4]; over 30 µM in assay [5]; over 30 µM in [6]. In addition, the concentration at half-maximal activity (AC50) in assay [7] is over 10 µM; in assay [8], over 10 µM; at Melanocortin receptor 3, over 30 µM; in assay [9], over 30 µM; at Motilin receptor, over 10 µM; at Histamine H1 receptor, over 10 µM. The AC50 in assay [10] is over 10 µM.

Values taken from ChEMBL document CHEMBL5291721, “A preclinical secondary pharmacology resource illuminates target-adverse drug reaction associations of marketed drugs” (Nat Commun, 2023).
